Assay results from patent US12234256B2, “Molecular degraders of extracellular proteins” (priority 2021, dated 2025).

Columns and labels:
α-DNP antibody [1] = assay: Ternary complex formation between hepatocytes and α-DNP antibody; assay type: cell-based; settings: FIG. 6B; competitive binders of ASGPR or α-DNP antibody
α-DNP antibody [2] = assay: In vivo serum levels of α-DNP antibody, ELISA; settings: FIG. 8D; single variable dose; mice
Description: In vivo experiments were performed under Yale University IACUC supervision following protocol entitled “pre-clinical evaluation of small molecule immunomodulators” (Protocol number 2017-11445). Experiments were performed in male nude mice purchased from Jackson Laboratory (NU/J, Stock No. 002019). Compounds were administered i.p. in a volume of 100 μL PBS. Approximately 25 μL of blood was collected at each time point by saphenous bleed. Antibody was administered as 40 μg in 100 μL i.p. Compounds were administered daily at the specified dose throughout the course of experiments. For data analysis, antibody levels were normalized to the recorded concentration of antibody observed in each mouse 24 hours after the i.p. administration.
ELISA analysis of serum samples was performed using MaxiSorp 96 well plates (Thermo, 44-2404-21). Plates were coated with 50 μL of BSA-DNP (Invitrogen, A23018) at 100 ug/mL in PBS and incubated at 4° C. overnight. Coating solution was then removed, and the plates were blocked with 2% BSA in PBS for 2 hours at room temperature, followed by washing twice with PBST (0.2% Tween). Serum samples were diluted in 2% BSA in PBS. […] The plates were then treated with TMB (Thermo 34028) followed by 2 M H2SO4 and analyzed for OD at 450 nm on a plate reader (BioTek Synergy 2). Sample concentrations were determined against a standard curve.

CC(=O)N[C@H]1[C@H](OCCOCCOCCNC(=O)CCOCC(COCCC(=O)NCCOCCOCCO[C@@H]2O[C@H](CO)[C@H](O)[C@H](O)[C@H]2NC(C)=O)(COCCC(=O)NCCOCCOCCO[C@@H]2O[C@H](CO)[C@H](O)[C@H](O)[C@H]2NC(C)=O)NC(=O)CNC(=O)COCCOCCOCCNc2ccc([N+](=O)[O-])cc2[N+](=O)[O-])O[C@H](CO)[C@H](O)[C@@H]1O [D-MoDE-A]
D-MoDE-A-mediated ternary complex formation in presence of competitive binders (α-DNP antibody [1]): inhibited by competitive binders of either ASGPR or α-DNP antibody
serum levels of α-DNP antibody (α-DNP antibody [2]): decrease in serum levels of α-DNP antibody
